The values below come from US20050191282A1, “Method of cryopreserving pancreatic islet cells” (priority 2004, published 2005).

The test system of one assay is islets. The note with it: DMSO as cryoprotectant, compared to freshly isolated islets; cited from earlier work.
In assay [1] the test system is isolated rat islets. The assay is described as follows: Glucose-stimulated insulin secretion by perifused islets after cryopreservation. The format is cell-based. The method, then: FIG. 2 graphs glucose stimulation of insulin secretion in islets cryopreserved with different cryoprotectants. After one week of cryopreservation, islets were thawed and cultured overnight before being tested for response to 16.7 mM glucose stimulation. The 16.7 mM glucose stimulated insulin secretion was assessed by normalizing data as percent basal insulin secretion for each group of islets. Data represent mean±SEM.
The present invention is based on the hypothesis that the low molecular weight (MW) compounds, DMSO and glycerol, permeate the cell and interact hydrophobically with intracellular proteins thereby perturbing the cyto-skeletal architecture of frozen cells, and diminishing islet cell integrity and function. […] Using a programmable temperature controller, samples of pre-counted islets were then frozen under liquid nitrogen, in the presence of either 2M DMSO (MW=0.078 kD), 3M glycerol (MW=0.092 kD), 5% polyethylene glycol (PEG, MW=20 kD), or 10% polyvinylpyrrolidone (PVP, MW=40 kD), and stored at −80° C. for 1 week. Following thawing, intact islet recovery was determined by islet counting after Dithizone staining. Islet function was assessed by determination of glucose-stimulated insulin secretion in perifusion experiments with Krebs-Ringer bicarbonate buffer, pH 7.4, containing either basal (3.3 mM) or high (16.7 mM) glucose concentrations. […]

In assay [2] the test system is isolated rat islets. The assay can be described thus: Recovery of intact islets after cryopreservation and thawing (islet counting after Dithizone staining). Type of assay: cell-based. More on the design: key: Severe = +++; Mild = +. The note with it: 2M DMSO, 3M glycerol, 5% PEG or 10% PVP. The method, then: The present invention is based on the hypothesis that the low molecular weight (MW) compounds, DMSO and glycerol, permeate the cell and interact hydrophobically with intracellular proteins thereby perturbing the cyto-skeletal architecture of frozen cells, and diminishing islet cell integrity and function. Isolated rat islets were cultured overnight (16-24 hr) at 37° C., in RPMI medium supplemented with 10% fetal calf serum and 1% mixture of Penicillin/Streptomycin. Using a programmable temperature controller, samples of pre-counted islets were then frozen under liquid nitrogen, in the presence of either 2M DMSO (MW=0.078 kD), 3M glycerol (MW=0.092 kD), 5% polyethylene glycol (PEG, MW=20 kD), or 10% polyvinylpyrrolidone (PVP, MW=40 kD), and stored at −80° C. for 1 week. Following thawing, intact islet recovery was determined by islet counting after Dithizone staining. Islet function was assessed by determination of glucose-stimulated insulin secretion in perifusion experiments with Krebs-Ringer bicarbonate buffer, pH 7.4, containing either basal (3.3 mM) or high (16.7 mM) glucose concentrations. After thawing samples of frozen islets, the mean±SEM % intact islet recovery was higher with PVP compared to DMSO (82±4.6 versus 62.7±3.1% respectively, p<0.005, n=9). […]

The structures appear in SMILES notation.

`C[S+](C)[O-]` [DMSO, Dimethylsulfoxide]: in the assay with islets, the “loss in the number and function of islets after thawing” value was 30-50%. Moreover, in the assay on isolated rat islets [1], the “function of cryopreserved islets compared to freshly isolated islets” value is “impaired”. Further, the “Fragment (fragmentation of islets after thawing)” value in the assay on isolated rat islets [2] is on record as “+++”.

In the case of `OCC(O)CO` [GLY, glycerol], the “function of cryopreserved islets compared to freshly isolated islets” value in the assay on isolated rat islets [1] was “impaired”. Besides, the “Fragment (fragmentation of islets after thawing)” value in the assay on isolated rat islets [2] was “+++”.
